PubChem BioAssay (NCI)
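Step 1: Grow cells in 96-well plates. Step 2: Expose to compound for 48 hours at 5 concentrations. Step 3: Interpolate endpoints linearly; if unreached, use highest concentration. The concentration for 50% growth inhibition is given as GI50. TGI: total growth inhibition.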

Key:
Assay in all cases: NCI-60 cell line screen, 48 h
NCI-H460 lung = tested on: NCI-H460 lung
K-562 leukemia = tested on: K-562 leukemia
CAKI-1 renal = tested on: CAKI-1 renal
OVCAR-3 ovarian = tested on: OVCAR-3 ovarian
SF-539 CNS = tested on: SF-539 CNS
HOP-92 NSCLC = tested on: HOP-92 NSCLC
NCI-H226 lung = tested on: NCI-H226 lung
SR leukemia = tested on: SR leukemia
SNB-75 CNS = tested on: SNB-75 CNS
OVCAR-4 ovarian = tested on: OVCAR-4 ovarian
RPMI-8226 leukemia = tested on: RPMI-8226 leukemia
HCC-2998 colon = tested on: HCC-2998 colon
SK-OV-3 ovarian = tested on: SK-OV-3 ovarian
SK-MEL-28 melanoma = tested on: SK-MEL-28 melanoma
COLO 205 colon = tested on: COLO 205 colon
MDA-MB-231 breast = tested on: MDA-MB-231 breast
HS 578T breast = tested on: HS 578T breast
T-47D breast = tested on: T-47D breast
NCI-H23 lung = tested on: NCI-H23 lung
KM12 colon = tested on: KM12 colon
IGROV1 ovarian = tested on: IGROV1 ovarian
UACC-62 melanoma = tested on: UACC-62 melanoma
SW-620 colon = tested on: SW-620 colon
U251 CNS = tested on: U251 CNS
ACHN renal = tested on: ACHN renal
DU-145 prostate = tested on: DU-145 prostate
OVCAR-5 ovarian = tested on: OVCAR-5 ovarian
LOX IMVI melanoma = tested on: LOX IMVI melanoma
HT29 colon = tested on: HT29 colon
SF-268 CNS = tested on: SF-268 CNS
HL-60(TB) leukemia = tested on: HL-60(TB) leukemia
SF-295 CNS = tested on: SF-295 CNS
786-0 renal = tested on: 786-0 renal
NCI-H522 lung = tested on: NCI-H522 lung
SK-MEL-2 melanoma = tested on: SK-MEL-2 melanoma
MCF7 breast = tested on: MCF7 breast
EKVX NSCLC = tested on: EKVX NSCLC
A549 NSCLC = tested on: A549 NSCLC
UO-31 renal = tested on: UO-31 renal
MDA-MB-435 = tested on: MDA-MB-435
PC-3 prostate = tested on: PC-3 prostate
A498 renal = tested on: A498 renal
SNB-19 CNS = tested on: SNB-19 CNS
NCI/ADR-RES ovarian = tested on: NCI/ADR-RES ovarian
OVCAR-8 ovarian = tested on: OVCAR-8 ovarian
MOLT-4 leukemia = tested on: MOLT-4 leukemia
SK-MEL-5 melanoma = tested on: SK-MEL-5 melanoma
HCT-15 colon = tested on: HCT-15 colon
M14 melanoma = tested on: M14 melanoma
UACC-257 melanoma = tested on: UACC-257 melanoma
RXF 393 renal = tested on: RXF 393 renal
HCT-116 colon = tested on: HCT-116 colon
BT-549 breast = tested on: BT-549 breast

`O=C(Nc1ccccc1Cl)c1cccc(NC2=C(Cl)C(=O)N(Cc3ccccc3)C2=O)c1` was tested, and the GI50 (NCI-H460 lung) was 26.8 µM, the TGI (NCI-H460 lung) was > 100 µM and the GI50 (K-562 leukemia) was 2670 nM. The TGI (K-562 leukemia) was 35.3 µM, the GI50 (CAKI-1 renal) was 23.2 µM and the TGI (CAKI-1 renal) was 66.9 µM. The GI50 (OVCAR-3 ovarian) was 12.5 µM, the TGI (OVCAR-3 ovarian) was 33.3 µM and the GI50 (SF-539 CNS) was 26.7 µM. For the same compound, the TGI (SF-539 CNS) was 94.6 µM, the GI50 (HOP-92 NSCLC) was 15 µM and the TGI (HOP-92 NSCLC) was > 100 µM. It also gave a GI50 (NCI-H226 lung) of 4.45 µM, a TGI (NCI-H226 lung) of 46.4 µM and a GI50 (SR leukemia) of 1120 nM. The TGI (SR leukemia) was 3.39 µM, the GI50 (SNB-75 CNS) was 3.55 µM and the TGI (SNB-75 CNS) was > 100 µM. For the same compound, the GI50 (OVCAR-4 ovarian) was 3.63 µM, the TGI (OVCAR-4 ovarian) was 75.8 µM and the GI50 (RPMI-8226 leukemia) was 3.1 µM. The TGI (RPMI-8226 leukemia) was 20.6 µM, the GI50 (HCC-2998 colon) was 20.5 µM and the TGI (HCC-2998 colon) was 54.5 µM. The GI50 (SK-OV-3 ovarian) was > 100 µM, the TGI (SK-OV-3 ovarian) was > 100 µM and the GI50 (SK-MEL-28 melanoma) was 18.6 µM. The TGI (SK-MEL-28 melanoma) was > 100 µM, the GI50 (COLO 205 colon) was 51.2 µM and the TGI (COLO 205 colon) was > 100 µM. The GI50 (MDA-MB-231 breast) was 17.1 µM, the TGI (MDA-MB-231 breast) was 69.7 µM and the GI50 (HS 578T breast) was 30.2 µM. For the same compound, the TGI (HS 578T breast) was > 100 µM, the GI50 (T-47D breast) was > 100 µM and the TGI (T-47D breast) was > 100 µM. The GI50 (NCI-H23 lung) was 50.5 µM, the TGI (NCI-H23 lung) was > 100 µM and the GI50 (KM12 colon) was 37.1 nM. It also gave a TGI (KM12 colon) of 9.86 µM, a GI50 (IGROV1 ovarian) of 549 nM and a TGI (IGROV1 ovarian) of 2290 nM. For the same compound, the GI50 (UACC-62 melanoma) was 7.36 µM, the TGI (UACC-62 melanoma) was 51 µM and the GI50 (SW-620 colon) was 26.1 µM. The TGI (SW-620 colon) was > 100 µM, the GI50 (U251 CNS) was 21 µM and the TGI (U251 CNS) was > 100 µM. For the same compound, the GI50 (ACHN renal) was 60.5 µM, the TGI (ACHN renal) was > 100 µM and the GI50 (DU-145 prostate) was 28.5 µM. The TGI (DU-145 prostate) was > 100 µM, the GI50 (OVCAR-5 ovarian) was > 100 µM and the TGI (OVCAR-5 ovarian) was > 100 µM. The GI50 (LOX IMVI melanoma) was 7.96 µM, the TGI (LOX IMVI melanoma) was > 100 µM and the GI50 (HT29 colon) was 19.8 µM. The TGI (HT29 colon) was > 100 µM, the GI50 (SF-268 CNS) was 18.6 µM and the TGI (SF-268 CNS) was 58.6 µM. It also gave a GI50 (HL-60(TB) leukemia) of 1400 nM, a TGI (HL-60(TB) leukemia) of 20.8 µM and a GI50 (SF-295 CNS) of 23.3 µM. It also gave a TGI (SF-295 CNS) of 92.3 µM, a GI50 (786-0 renal) of 10.2 µM and a TGI (786-0 renal) of 60.5 µM. The GI50 (NCI-H522 lung) was 7.72 µM, the TGI (NCI-H522 lung) was 31.1 µM and the TGI (SK-MEL-2 melanoma) was 6.38 µM. The GI50 (MCF7 breast) was 11.6 µM, the TGI (MCF7 breast) was 33.4 µM and the GI50 (EKVX NSCLC) was 88.3 µM. The TGI (EKVX NSCLC) was > 100 µM, the GI50 (A549 NSCLC) was 49.3 µM and the TGI (A549 NSCLC) was > 100 µM. It also gave a GI50 (UO-31 renal) of 4.91 µM, a TGI (UO-31 renal) of 53.8 µM and a GI50 (MDA-MB-435) of 3.05 µM. It also gave a TGI (MDA-MB-435) of 10.3 µM, a GI50 (PC-3 prostate) of 18.9 µM and a TGI (PC-3 prostate) of 99 µM. The GI50 (A498 renal) was 24.6 µM, the TGI (A498 renal) was 89.9 µM and the GI50 (SNB-19 CNS) was 60.5 µM. For the same compound, the TGI (SNB-19 CNS) was > 100 µM, the GI50 (NCI/ADR-RES ovarian) was 46.4 µM and the TGI (NCI/ADR-RES ovarian) was > 100 µM. For the same compound, the GI50 (OVCAR-8 ovarian) was 20.8 µM, the TGI (OVCAR-8 ovarian) was > 100 µM and the GI50 (MOLT-4 leukemia) was 2520 nM. For the same compound, the TGI (MOLT-4 leukemia) was > 100 µM, the GI50 (SK-MEL-5 melanoma) was 14.1 µM and the TGI (SK-MEL-5 melanoma) was 51.4 µM. The GI50 (HCT-15 colon) was 14.1 µM, the TGI (HCT-15 colon) was > 100 µM and the GI50 (M14 melanoma) was 9.32 µM. For the same compound, the TGI (M14 melanoma) was 29.5 µM, the GI50 (UACC-257 melanoma) was 24.3 µM and the TGI (UACC-257 melanoma) was > 100 µM. For the same compound, the GI50 (RXF 393 renal) was 52.5 µM, the TGI (RXF 393 renal) was > 100 µM and the GI50 (HCT-116 colon) was 3.18 µM. For the same compound, the TGI (HCT-116 colon) was 13.3 µM, the GI50 (BT-549 breast) was 22.5 µM and the TGI (BT-549 breast) was > 100 µM.
